Experimental data from article PMC4942689, “Deciphering the function of the CNGB1b subunit in olfactory CNG channels” (Scientific Reports, 2016).

Tests used:
[1] = target: T1, CNGA2TM:B1b (Rattus norvegicus, UniProt A0A8I5ZN27+Q00195, T539M); experiment: Ligand binding, confocal patch-clamp fluorometry; set-up: key to Ligand binding to CNGB1b: +: ligand binding to the respective modulatory subunits was either observed or not; −: ligand binding to the respective modulatory subunits was either observed or not
T1 construct: expressed in transfected cells; host or cells: Xenopus laevis oocytes (cRNA injection), excised patches
T1 sequence (Q00195 whole entry T539M): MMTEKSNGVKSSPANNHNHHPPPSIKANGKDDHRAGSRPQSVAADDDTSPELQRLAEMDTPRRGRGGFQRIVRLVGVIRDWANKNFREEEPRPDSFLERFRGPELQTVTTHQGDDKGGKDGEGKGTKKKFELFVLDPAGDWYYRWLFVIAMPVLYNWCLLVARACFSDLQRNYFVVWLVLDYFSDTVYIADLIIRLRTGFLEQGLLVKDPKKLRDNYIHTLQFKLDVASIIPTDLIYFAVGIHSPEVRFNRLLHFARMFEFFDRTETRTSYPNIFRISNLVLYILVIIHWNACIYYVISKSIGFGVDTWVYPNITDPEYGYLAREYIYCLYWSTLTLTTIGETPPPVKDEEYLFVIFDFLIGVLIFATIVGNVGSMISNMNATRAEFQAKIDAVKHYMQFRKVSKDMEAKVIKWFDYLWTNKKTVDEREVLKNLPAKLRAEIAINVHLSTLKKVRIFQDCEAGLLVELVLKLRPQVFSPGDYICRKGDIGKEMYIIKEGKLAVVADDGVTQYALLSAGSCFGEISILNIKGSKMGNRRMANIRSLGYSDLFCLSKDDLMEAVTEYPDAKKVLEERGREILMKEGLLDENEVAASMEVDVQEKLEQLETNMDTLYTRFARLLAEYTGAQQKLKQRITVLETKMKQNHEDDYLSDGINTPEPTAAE
T1 sequence (A0A8I5ZN27 1-858 isoform A0A8I5ZN27-2, stated change not applied): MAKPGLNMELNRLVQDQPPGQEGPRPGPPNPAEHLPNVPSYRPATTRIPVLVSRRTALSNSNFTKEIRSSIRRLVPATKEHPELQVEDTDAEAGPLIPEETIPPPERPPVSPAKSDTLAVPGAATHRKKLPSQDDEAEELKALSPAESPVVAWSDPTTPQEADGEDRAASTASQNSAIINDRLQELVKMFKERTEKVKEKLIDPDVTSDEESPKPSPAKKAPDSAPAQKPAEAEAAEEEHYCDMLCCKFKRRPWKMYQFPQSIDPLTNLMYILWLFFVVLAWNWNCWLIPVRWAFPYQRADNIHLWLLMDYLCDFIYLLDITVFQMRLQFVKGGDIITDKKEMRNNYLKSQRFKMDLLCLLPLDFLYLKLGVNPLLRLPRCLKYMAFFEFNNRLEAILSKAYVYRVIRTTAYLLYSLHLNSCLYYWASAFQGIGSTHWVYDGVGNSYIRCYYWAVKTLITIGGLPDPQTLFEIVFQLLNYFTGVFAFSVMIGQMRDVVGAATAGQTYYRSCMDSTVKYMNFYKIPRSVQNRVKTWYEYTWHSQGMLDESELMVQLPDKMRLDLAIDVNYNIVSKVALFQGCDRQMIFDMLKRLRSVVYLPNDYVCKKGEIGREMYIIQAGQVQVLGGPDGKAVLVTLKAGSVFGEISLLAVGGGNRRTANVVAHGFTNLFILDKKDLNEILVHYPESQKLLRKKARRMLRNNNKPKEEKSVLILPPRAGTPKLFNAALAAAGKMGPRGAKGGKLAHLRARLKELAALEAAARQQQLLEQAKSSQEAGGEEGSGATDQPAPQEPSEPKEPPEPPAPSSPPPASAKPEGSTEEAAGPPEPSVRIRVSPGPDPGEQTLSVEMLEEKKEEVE
Excerpt: (§1) The channels to be studied were expressed in Xenopus oocytes. We first tested the subunit composition in our channels when coexpressing different combinations of subunits by single-channel recordings. For CNGA2:A4, CNGA2:B1b and CNGA2:A4:B1b channels we exclusively obtained the specific and easily distinguishable single-channel activity reported earlier when injecting respective amounts of RNA[7][13]. We therefore assumed that the channels formed had always the expected subunit composition. The specific binding of cyclic nucleotides and the activation of the CNG channels were measured in parallel by means of confocal patch-clamp fluorometry in excised patches, using fluorescent cyclic nucleotide derivatives. The method has been described previously.
To study ligand binding to the CNGB1b subunit selectively, the binding domain of the CNGA2 subunits was disabled by either the point mutation R538E (red crosses in the cartoons) or T539M (blue crosses in the cartoons)[13][20]. […] To this end, CNGB1b was coexpressed with CNGA2RE.
(§2) The ligand binding was measured in macropatches by patch-clamp fluorometry[41][42] combined with confocal microscopy. […] Recordings were performed with an LSM 510 or 710 confocal microscope (Zeiss, Jena, Germany) and were triggered by the ISO3 software (MFK, Niedernhausen, Germany). To distinguish between the fluorescence of the unbound ligands from that of the bound ligands, a second dye, DY647 (Dyomics, Jena, Germany), was added to the bath solution. The 543-nm and 633-nm lines of a He-Ne laser were used to excite fcAMP/fcGMP and DY647, respectively. The method of confocal patch-clamp fluorometry has been described in detail previously.

[2] = tested on: CNGA4; set-up: method as in Nache et al., 2012; key: +: ligand binding to the respective modulatory subunits was either observed or not; −: ligand binding to the respective modulatory subunits was either observed or not; settings: 10 μM; construct CNGA4; ref Nache et al., 2012; cited from earlier work
[3] = tested on: CNGA2RE:A4; set-up: method as in Nache et al., 2012; key: +: ligand binding to the respective modulatory subunits was either observed or not; −: ligand binding to the respective modulatory subunits was either observed or not; settings: 10 μM; construct CNGA2RE:A4; ref Nache et al., 2012; cited from earlier work
[4] = target: T2, CNGA2TM:A4RE:B1b (Rattus norvegicus, UniProt A0A8I5ZN27+Q00195+Q64359, R430E/T539M); experiment: Ligand binding, confocal patch-clamp fluorometry; set-up: key to Ligand binding to CNGA4 / Ligand binding to CNGB1b: +: ligand binding to the respective modulatory subunits was either observed or not; −: ligand binding to the respective modulatory subunits was either observed or not
T2 construct: expressed in transfected cells; host or cells: Xenopus laevis oocytes (cRNA injection), excised inside-out patches
T2 sequence (Q00195 whole entry T539M): as the sequence (Q00195 whole entry T539M) above
T2 sequence (Q64359 whole entry R430E): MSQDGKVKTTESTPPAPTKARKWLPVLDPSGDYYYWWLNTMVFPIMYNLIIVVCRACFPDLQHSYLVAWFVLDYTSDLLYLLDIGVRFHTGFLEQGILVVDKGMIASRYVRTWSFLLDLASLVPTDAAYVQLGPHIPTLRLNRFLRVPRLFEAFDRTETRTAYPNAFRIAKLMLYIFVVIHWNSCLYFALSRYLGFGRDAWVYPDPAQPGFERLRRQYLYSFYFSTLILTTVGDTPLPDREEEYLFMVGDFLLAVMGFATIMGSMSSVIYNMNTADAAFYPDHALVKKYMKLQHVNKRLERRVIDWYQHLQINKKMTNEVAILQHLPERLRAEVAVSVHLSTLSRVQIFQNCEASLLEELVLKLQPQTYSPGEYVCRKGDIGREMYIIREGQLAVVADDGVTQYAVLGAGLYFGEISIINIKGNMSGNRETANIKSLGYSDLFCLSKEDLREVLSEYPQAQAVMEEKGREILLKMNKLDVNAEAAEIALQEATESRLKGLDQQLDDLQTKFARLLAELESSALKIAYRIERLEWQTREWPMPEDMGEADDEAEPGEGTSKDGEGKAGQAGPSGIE
T2 sequence (A0A8I5ZN27 1-858 isoform A0A8I5ZN27-2, stated change not applied): as the sequence (A0A8I5ZN27 1-858 isoform A0A8I5ZN27-2, stated change not applied) above
Excerpt: as §1
(§3) To verify the hypothesis that the CNGB1b subunit in CNGA2:A4:B1b channels binds cyclic nucleotides, we coexpressed CNGB1b with CNGA4RE and either CNGA2RE or CNGA2TM and measured ligand binding in the presence of 10 μM fcGMP. […] To verify the specificity of the binding to the CNGB1b subunit in these heterotetrameric channels, we coexpressed the CNGB1bRE subunit with CNGA2RE and CNGA4RE.
as §2

[5] = target: T3, CNGA2RE:A4RE:B1b (Rattus norvegicus, UniProt A0A8I5ZN27+Q00195+Q64359, R430E/R538E); experiment: Ligand binding, confocal patch-clamp fluorometry; set-up: key to Ligand binding to CNGA4 / Ligand binding to CNGB1b: +: ligand binding to the respective modulatory subunits was either observed or not; −: ligand binding to the respective modulatory subunits was either observed or not
T3 construct: expressed in transfected cells; host or cells: Xenopus laevis oocytes (cRNA injection), excised inside-out patches
T3 sequence (Q00195 whole entry R538E): as the sequence (Q00195 whole entry T539M) above, with R538E, M539T counted along it
T3 sequence (Q64359 whole entry R430E): as the sequence (Q64359 whole entry R430E) above
T3 sequence (A0A8I5ZN27 1-858 isoform A0A8I5ZN27-2, stated change not applied): as the sequence (A0A8I5ZN27 1-858 isoform A0A8I5ZN27-2, stated change not applied) above
Excerpt: as §1, §3, §2

[6] = target: T4, CNGA2RE:A4RE:B1bRE (Rattus norvegicus, UniProt A0A8I5ZN27+Q00195+Q64359, R1106E/R430E/R538E); experiment: Ligand binding, confocal patch-clamp fluorometry; set-up: key to Ligand binding to CNGA4 / Ligand binding to CNGB1b: +: ligand binding to the respective modulatory subunits was either observed or not; −: ligand binding to the respective modulatory subunits was either observed or not
T4 construct: expressed in transfected cells; host or cells: Xenopus laevis oocytes (cRNA injection), excised inside-out patches
T4 sequence (Q00195 whole entry R538E): as the sequence (Q00195 whole entry T539M) above, with R538E, M539T counted along it
T4 sequence (Q64359 whole entry R430E): as the sequence (Q64359 whole entry R430E) above
T4 sequence (A0A8I5ZN27 1-858 isoform A0A8I5ZN27-2 R657E): as the sequence (A0A8I5ZN27 1-858 isoform A0A8I5ZN27-2, stated change not applied) above, with R657E counted along it
Excerpt: as §1, §3, §2

[7] = tested on: concatameric homotetrameric CNGA2 channels with three disabled subunits; set-up: method as in PMID 26858151; settings: read-out: EC50 of one CNGA2 subunit; cited from earlier work
[8] = target: T5, homotetrameric CNGA2 channels (Rattus norvegicus, UniProt Q00195); experiment: Concentration-activation relationship, inside-out patch-clamp, Xenopus oocytes; type: biochemical
T5 construct: expressed in transfected cells; host or cells: Xenopus laevis oocytes (cRNA injection), excised inside-out patches
T5 sequence (Q00195 whole entry): as the sequence (Q00195 whole entry T539M) above, with M539T counted along it
Description: Patch-clamp experiments were performed using an Axopatch 200B amplifier (Molecular Devices LLC, CA, U.S.A.) in the inside-out configuration. The patch pipettes for recording of macroscopic currents were pulled from borosilicate glass tubing (outer diameter 2.0 mm, inner diameter 1.0 mm; Hilgenberg GmbH, Germany). […] The patches were formed as pushed inside-out patches. […] Cyclic nucleotide concentration jumps were performed using a double-barreled glass pipette mounted on a piezo-driven device. Intracellular (bath) and extracellular (pipette) solutions contained (mM) 150 KCl, 1 EGTA, 5 Hepes, pH = 7.4 with KOH. […] Currents in the absence of the cyclic nucleotide were subtracted. All patches included in this study were first tested for channel expression in the presence of a saturating ligand concentration. Only patches with large current, i.e. a large number of channels, were included in our statistics. The currents were measured at +10 mV or, if mentioned, at +100 mV. Fits of equations to data points were performed with the 8.1G® software (OriginLab Corporation, Northampton, U.S.A.). Concentration-activation relationships were obtained by relating the actual current amplitude, I, to the maximum current amplitude elicited by a saturating concentration of ligand, Imax, and plotting this ratio as function of the ligand concentration, x. […]

[9] = 10 μM, construct CNGA2TM:A4RE:B1b
[10] = 10 μM, construct CNGA2RE:A4RE:B1b
[11] = 10 μM, construct CNGA2RE:A4RE:B1bRE

Molecule	binding to CNGB1b (in words) ([1]; 10 μM fcGMP, coexpressed with disabled CNGA2 (CNGA2TM))	Ligand binding to CNGB1b ([1]; 10 μM, construct CNGA2TM:B1b)	Ligand binding to CNGA4 [2]	Ligand binding to CNGA4 [3]	binding to the CNGB1b subunit (in words) ([4]; 10 μM fcGMP, CNGB1b with CNGA4RE and CNGA2TM)	Ligand binding to CNGA4 [4, 9]	Ligand binding to CNGB1b [4, 9]	binding to the CNGB1b subunit (in words) ([5]; 10 μM fcGMP, CNGB1b with CNGA4RE and CNGA2RE)	Ligand binding to CNGA4 [5, 10]	Ligand binding to CNGB1b [5, 10]	binding (in words) ([6]; 10 μM fcGMP, CNGB1bRE with CNGA2RE and CNGA4RE)	Ligand binding to CNGA4 [6, 11]	Ligand binding to CNGB1b [6, 11]	EC50 [7] [µM]	H ([8]; Hill coefficient, Equation 1)	EC50 ([8]; fit with Equation 1) [nM]
8-[DY-547]-AET-cGMP [fcGMP]	does not bind	−	−	+	robust binding	−	+	robust binding	−	+	essentially diminished	−	−			
Nc1nc2c(ncn2[C@@H]2O[C@@H]3COP(=O)(O)O[C@H]3[C@H]2O)c(=O)[nH]1 [cGMP]														22.2	1.9	1740
